Test results reported in patent publication US10716797B2, “Steroid alkaloids and compositions and kits thereof” (priority 2013, dated 2020).
Entries after “also recorded” stand apart in the source; their conditions may differ.

Experiments:
[1] = system: Listeria monocytogenes ATCC 13932 SCVs; assay: Time-kill experiments, Listeria monocytogenes SCV; format: cell-based; conditions: 8 μg/mL; 8 h and 24 h; hydrochloride
Description: Time-kill experiments were performed in order to determine whether the effect of test compounds on SCVs of bacterial species of the Firmicutes phylum is bacteriostatic (prevents growth) or bactericidal (kills cells).
Listeria monocytogenes ATCC 13932 SCVs were produced by plating a large inoculum (˜10^5 bacterial cells) on brain heart infusion agar (BHIA) plates containing various amounts of gentamicin in order to create a selective pressure for the generation of electron transport-deficient bacteria with the SCV phenotype, which are known to be less susceptible to aminoglycoside antibiotics (e.g., gentamicin). Indeed, aminoglycosides require the proton-motive force in order to penetrate the bacterium (Bryan and Kwan, 1981). As expected, SCV isolates were collected from such selective plates and were then passaged on drug-free medium to assess stability of the SCV phenotype. SCV isolates keeping the SCV phenotype after several passages on drug-free medium were then used for experiments described below.
One of the L. monocytogenes SCV described above was used in time-kill experiments as described in Example 22. […] At some time-points during growth at 35° C. (225 RPM), bacteria were sampled, serially diluted and plated on BHIA for colony-forming unit (CFU) determinations (i.e., viable bacterial counts). Plates were incubated for 48 h at 35° C. […]

S. aureus hemB (SaR1) = assay: MIC against tomatidine-resistant SCV mutant SaR1; format: cell-based, Staphylococcus aureus
Description: At each passage, using a microdilution method in 96-well microplates, S. aureus hemB was inoculated at ˜10^5-10^6 CFU/ml and incubated at 35° C. for 48 h. The range of tomatidine concentrations tested was 0.03 to 64 μg/ml using doubling increments. The concentration of gentamicin was fixed at 4 μg/mL when it was used in combination with tomatidine. At each passage, the minimal inhibitory concentrations (MICs) (i.e. lowest concentration of an antimicrobial that inhibits the visible growth of bacteria), of tomatidine was determined. The bacteria used as inoculum for the next passage were from the well preceeding the well showing the MIC (i.e. the well containing half the MIC). At each passage, the population of bacteria serving as the inoculum for the next passage was spread on BHI agar plates and three isolated colonies were collected and frozen until used for whole-genome sequencing.

3-(N-aminoethyl)-aminotomatidine hydrochloride [Compound 14]
bactericidal effect on L. monocytogenes SCV (CFU) [1]: efficiently kills; also recorded: superior bactericidal activity | Fold increase in resistance (MIC for mutant / MIC for NewbouldΔhemB) (S. aureus hemB (SaR1); mutant SaR1): 16 fold | MIC (S. aureus hemB (SaR1); tomatidine-resistant mutant SaR1): 8 µg/mL
